The Ki is a dissociation constant, usually derived from enzyme kinetics or from competition with a known ligand.

The structures appear in SMILES notation.

The target in experiment [1] is T1, human serotonin re-uptake transporter (hSERT) (Homo sapiens, UniProt P31645). Put plainly: Serotonin uptake inhibition in HEK-293 cells stably expressing hSERT. Format: cell-based. Here is the method:
HEK-293 cells stably expressing the human serotonin re-uptake transporter (hSERT) were obtained from R. Blakely, Vanderbilt University, USA. The cells were routinely grown in Dulbeco's Modified Eagles Medium, purchased from Bioconcept, Allschwil, Switzerland containing 10% fetal calf serum, penicillin, streptomycin, L-glutamine and the antibiotic G418 and passaged by trypsinisation. 1 day prior to the assay cells were seeded in the above mentioned medium. Immediately prior to the assay the medium was replaced by Krebs Ringers bicarbonate buffer, purchased from Sigma Chemicals Ltd., supplemented with 35 μM pargyline, 2.2 mM CaCl2, 1 mM ascorbic acid and 5 mM N-2-hydroxyethylpiperazine-N′-2-ethanesulfonic acid (buffer called “Hepes”). Serotonin uptake into the cells was determined by addition of radio-labeled (3H) serotonin (Amersham Biosciences GE Healthcare, Slough, UK) to a concentration of 20 nM, and incubation for 30 minutes at room temperature. Following removal of unincorporated label by gentle washing three times with the above buffer, incorporated serotonin was quantified by liquid scintillation counting.
(§1) The effect of the coumarin ethers of formula I on the serotonin uptake and the citalopram binding was determined by its inclusion in the assay at a range of concentrations between 0.03 and 100 μM for 10 minutes prior to and during the addition of (3H) serotonin/citalopram. Serotonin uptake via the transporter and citalopram binding were both inhibited by the coumarin ethers of formula I in a dose dependent manner. The calculated inhibition constants Ki, derived from the measured IC50 using the Cheng—Prusoff equation (Y. C. Cheng, W. H. Prusoff, Biochem. Pharmacol. 1973, 22, p. 3099-3108), for inhibition of serotonin uptake and citalopram binding by coumarin ethers of the formula I are shown in Table 1.

Experiment [2] deals with T1, human serotonin re-uptake transporter (hSERT). Put plainly: Labeled citalopram displacement from hSERT containing membranes (SPA). Format: binding. Here is the method: Membranes containing hSERT were prepared from the above cell line according to Galli et al, Journal of Experimental Biology 1995, 198, 2197-2212. 3 μg of membrane protein and 0.8 mg of wheat germ aglutinin coated SPA® (scintillation proximity assay) beads (Amersham Biosciences GE Healthcare, Slough, UK) per data point were mixed with radio-labeled (3H) citalopram (Amersham Biosciences GE Healthcare, Slough, UK) until a final concentration of 3.3 nM in 50 mM Tris-HCl, 300 mM NaCl (pH 7.4). After incubation for 18 hours at room temperature, the bound citalopram was quantified by liquid scintillation counting.
as §1

A further experiment deals with mice. As to the kind of experiment: Marble burying test (anxiety like or obsessive compulsive behaviour). To be noted: for number of marbles covered by sawdust, mean ± s.e.m.: 25 marbles, 30-minute test. Format: in vivo. The procedure:
The method applied here follows that described by Broekkamp et al. (1986). Mice (n=15 per treatment group) were individually placed in transparent plastic cages (33×21×18 cm) with 5 cm of sawdust on the floor and 25 marbles (diameter 1 cm) grouped in the centre of the cage. A second, up-turned, cage served as a lid. The number of marbles covered by sawdust (by at least two-thirds) was counted at the end of the 30-minute test period. Tests were performed by investigators blind to the drug treatment protocol.
Prior to testing, all test cages and marbles were “impregnated” by leaving 10 naive mice in each cage for 15 minutes.
7-Geranyl-oxycoumarin was evaluated at 3, 10 and 30 mg/kg, administered i.p. 30 minutes before the test, and compared with a vehicle control group. 7-Geranyl-oxycoumarin was dissolved in a saline solution containing 3 weight-% DMSO and 3 weight-% Tween® 80 (so called “vehicle”). To the control group the vehicle consisting of the saline solution containing 3 weight-% DMSO and 3 weight-% Tween® 80 was administered intraperitonally. Fluoxetine (32 mg/kg), administered under the same experimental conditions, was used as a reference substance.
Data were analysed by comparing treated groups with vehicle control using unpaired Student's t-tests.

[3] abbreviates: transfected HEK-293 cells, Ki from IC50 by Cheng-Prusoff, 20 nM (3H) serotonin, read-out: Inhibition constant Ki for tritiated serotonin uptake.
The mark [4] stands for this setting: hSERT containing membranes, Ki from IC50 by Cheng-Prusoff, 3.3 nM (3H) citalopram, read-out: Inhibition constant Ki for tritiated citalopram displacement.

T1 sequence (P31645 whole entry): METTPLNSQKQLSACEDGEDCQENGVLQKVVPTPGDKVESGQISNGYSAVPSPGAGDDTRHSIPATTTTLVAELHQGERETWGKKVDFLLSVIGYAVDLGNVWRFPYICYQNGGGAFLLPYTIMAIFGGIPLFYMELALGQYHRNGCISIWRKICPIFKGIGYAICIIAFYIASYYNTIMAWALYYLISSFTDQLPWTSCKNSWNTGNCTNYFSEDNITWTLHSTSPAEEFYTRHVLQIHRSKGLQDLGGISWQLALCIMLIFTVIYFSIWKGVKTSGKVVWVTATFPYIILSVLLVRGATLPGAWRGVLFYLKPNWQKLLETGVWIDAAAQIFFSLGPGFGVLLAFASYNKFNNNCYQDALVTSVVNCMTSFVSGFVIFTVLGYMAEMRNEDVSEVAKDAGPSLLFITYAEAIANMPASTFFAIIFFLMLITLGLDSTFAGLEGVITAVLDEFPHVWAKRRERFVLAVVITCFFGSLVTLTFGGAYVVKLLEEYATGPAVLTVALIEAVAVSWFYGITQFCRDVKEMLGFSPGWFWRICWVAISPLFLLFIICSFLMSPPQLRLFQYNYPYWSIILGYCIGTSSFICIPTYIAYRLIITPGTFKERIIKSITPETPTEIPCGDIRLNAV

As for `C/C(=C\COc1ccc2ccc(=O)oc2c1)CCC(=O)C(C)(C)O` [6′-Dehydromarmin, 6′-dehydromarmin], the Ki in experiment [1] (setting [3]) was 12.1 µM; in experiment [2] (setting [4]), 10.3 µM.

In the case of `CNCCC(Oc1ccc(C(F)(F)F)cc1)c1ccccc1` (stereo not drawn) [fluoxetine, reference compound], the “number of marbles covered by sawdust, % change from control” value in the experiment with mice (32 mg/kg i.p. −30 min, 32 mg/kg) is given as −98%; in the experiment on mice (32 mg/kg i.p. −30 min, listed as Fluoxetine, 32 mg/kg), −98%. Besides, in the experiment with mice (32 mg/kg i.p. −30 min), the “number of marbles covered by sawdust, mean ± s.e.m.” value is recorded as 0.3 ± 0.2.

Turning to `COc1cc2oc(=O)ccc2cc1CC=C(C)C` [Suberosin, suberosin], the Ki is 9.8 µM in experiment [1] (setting [3]) and 39.3 µM in experiment [2] (setting [4]).

As to `CC1(C)C=Cc2cc3ccc(=O)oc3cc2O1` [Xanthyletin, xanthyletin], the inhibition constant (Ki) in experiment [1] (setting [3]) worked out at 20.2 µM; in experiment [2] (setting [4]) it was 11.9 µM.

In the case of `CC(=O)OC(C)(C)[C@@H]1Cc2c(ccc3ccc(=O)oc23)O1` [(S)—O-Acetylcolumbianetin], the results for the inhibition constant (Ki) in experiment [1] (setting [3]) and in experiment [2] (setting [4]) were 21.7 µM and 11.6 µM, respectively.

In the case of `C/C(=C\COc1ccc2ccc(=O)oc2c1)C1=CC(=O)C(C)(C)O1` [Geiparvarin, geiparvarin], the results for the inhibition constant (Ki) in experiment [1] and in experiment [2] were 7 µM and 5.6 µM, respectively.

For `CC(C)=CCC/C(C)=C/COc1ccc2ccc(=O)oc2c1` [7-Geranyloxycoumarin, 7-geranyloxycoumarin], the inhibition constant Ki stood at 22.4 µM in experiment [1] (setting [3]) and 24.2 µM in experiment [2] (setting [4]). The “number of marbles covered by sawdust, % change from control” value in the experiment on mice (3 mg/kg i.p. −30 minutes, 3 mg/kg) is recorded as −27%; in the experiment on mice (3 mg/kg i.p. −30 minutes, listed as 7-Geranyl-oxycoumauin, 3 mg/kg) it was −27%; in the experiment with mice (10 mg/kg i.p. −30 minutes, 10 mg/kg), −39%; in the experiment with mice (10 mg/kg i.p. −30 minutes, listed as 7-Geranyl-oxycoumauin, 10 mg/kg), −39%; in the experiment on mice (30 mg/kg i.p. −30 minutes, 30 mg/kg), −74%; with mice (30 mg/kg i.p. −30 minutes, listed as 7-Geranyl-oxycoumauin, 30 mg/kg), −74%. In addition, the entries for the “number of marbles covered by sawdust, mean ± s.e.m.” value in the experiment on mice (3 mg/kg i.p. −30 minutes), in the experiment with mice (10 mg/kg i.p. −30 minutes) and in the experiment with mice (30 mg/kg i.p. −30 minutes) were 13.4 ± 2.0, 11.3 ± 2.4 and 4.7 ± 1.5, respectively.

These data come from patent publication US8044094B2, “Agents for preventing and treating disorders connected to impaired neurotransmission” (DSM IP Assets B.V., priority 2004, dated 2011).
